This test has as its target c-Myc template DNA (c-myc quadruplex). Description: Quadruplex binding / stop assay (Taq polymerase arrest, capillary electrophoresis).
[1] abbreviates: read-out: S DATA, Table 1D, stop assay data.
[2] abbreviates: read-out: Stop Data c-Myc μM, concentration at which 50% of the DNA was arrested (arrested:full-length 1:1).

Each structure is given as a SMILES string. Where two headings read alike, the source gives them in different places.

In the case of `CN(C)CCCCNC(=O)c1cn2c3c(c(N4CCC(NC(=O)OC(C)(C)C)C4)ccc3c1=O)Oc1cc3ccccc3cc1-2` (stereo not shown) [compound 1539], the IC50 under setting [1] is 0.75 µM.
Turning to `CN1CCCC1CCNC(=O)c1cn2c3c(c(N4CC[C@@H](NC(=O)OC(C)(C)C)C4)c(F)cc3c1=O)Oc1cc3ccccc3cc1-2` (stereo partly shown) [compound 120], under setting [2], the IC50 stood at 1.75 µM.
The same measure, in the same setting: for `CCN1CCCC1CNc1c(F)cc2c(=O)c(C(=O)N3CCOCC3)cn3c2c1Oc1cc2ccccc2cc1-3` (stereo not shown) [compound 42] the value was 2.5 µM.
On to `CC(C)N1CCN(c2c(F)cc3c(=O)c(C(=O)N4CCN(C)CC4)cn4c3c2Oc2ccccc2-4)CC1` [compound 1570], for which the IC50 under setting [1] was over 15 µM.
Turning to `CN1CCCC1CCNC(=O)c1cn2c3c(c(NCCCCN4CCCC4)c(F)cc3c1=O)Oc1cc3ccccc3cc1-2` (stereo not shown) [compound 440], the IC50 under setting [2] is 0.75 µM.
For `CC1CCN(CCCNC(=O)c2cn3c4c(c(N5CCC(NC(=O)OC(C)(C)C)C5)c(F)cc4c2=O)Oc2cc4ccccc4cc2-3)CC1` (stereo not shown) [compound 243], the IC50 under setting [2] was 1.75 µM.
Same read-out and setting: for `CN(CCc1ccccn1)C(=O)c1cn2c3c(c(N4CC[C@@H](N)C4)c(F)cc3c1=O)Oc1c-2ccc2ccccc12` [compound 80] the value was 2.5 µM.
As for `COc1cccc(CCNC(=O)c2cn3c4c(c(N5CCC(N)C5)c(F)cc4c2=O)Oc2cc4ccccc4cc2-3)c1` (stereo not shown) [compound 1698], under setting [1], the IC50 was over 15 µM.
For `O=C(NCCCN1CCOCC1)c1cn2c3c(c(NCCN4CCCC4)ccc3c1=O)Oc1cc3ccccc3cc1-2` [compound 267], under setting [2], the IC50 amounted to 1.75 µM.
The same measure, in the same setting: for `N[C@@H]1CCN(C(=O)c2cn3c4c(c(N5CC[C@@H](N)C5)c(F)cc4c2=O)Oc2c-3ccc3ccccc23)C1` [compound 78] the value was 2.5 µM; for `CN1CCCC1CCNc1ccc2c(=O)c(C(=O)NCCN3CCCC3)cn3c2c1Oc1cc2ccccc2cc1-3` (stereo not shown) [compound 448], 0.75 µM.
On the same count and under the same terms, for `N[C@@H]1CCN(C(=O)c2cn3c4c(c(NCCN5CCCC5)c(F)cc4c2=O)Oc2c-3ccc3ccccc23)C1` [compound 86] the value was 2.5 µM.
With `CC(C)N1CCN(c2c(F)cc3c(=O)c(C(=O)NCCCN4CCOCC4)cn4c3c2Oc2ccc(Cl)cc2-4)CC1` [compound 1791], the IC50 under setting [1] is over 15 µM.
Consider `CN1CCCC1CCNC(=O)c1cn2c3c(c(NC4CCS(=O)(=O)C4)c(F)cc3c1=O)Oc1cc3ccccc3cc1-2` (stereo not shown) [compound 338], for which the IC50 under setting [2] was 1 µM.
For `N=C(N)NCCCCNC(=O)c1cn2c3c(c(NCCN4CCCC4)c(F)cc3c1=O)Oc1cc3ccccc3cc1-2` [compound 1655], the IC50 under setting [1] was determined as 1 µM.
For `CN(C)CCCCNCCC(=O)N[C@@H]1CCN(c2c(F)cc3c(=O)c(C(=O)N4CCOCC4)cn4c3c2Oc2cc3c(cc2-4)oc2ccccc23)C1` [compound 177], the IC50 under setting [2] amounted to 1.75 µM.
For `CN1CCCC1CCNC(=O)c1cn2c3c(c(NCCN4CCCC4)c(F)cc3c1=O)Oc1ccccc1-2` (stereo not shown) [compound 1596], under setting [1], the IC50 is over 15 µM.
For the compound `CCN(CC)C(=O)C1CCCN(c2c(F)cc3c(=O)c(C(=O)NCCC4CCCN4C)cn4c3c2Oc2cc3ccccc3cc2-4)C1` (stereo not shown) [compound 250], the IC50 under setting [2] is 1.75 µM.
The same measure, in the same setting: for `NC1CCN(c2ccc3c(=O)c(C(=O)O)cn4c3c2Oc2cc3ccccc3cc2-4)C1` (stereo not shown) [compound 280] the value was 1.75 µM.
Turning to `CC(C)(C)OC(=O)NC1CCN(c2ccc3c(=O)c(C(=O)NCCN4CCCC4)cn4c3c2Oc2cc3ccccc3cc2-4)C1` (stereo not shown) [compound 1534], under setting [1], the IC50 is over 15 µM.
As for `NC1CCN(c2c(F)cc3c(=O)c(C(=O)NCc4ccccc4N4CCOCC4)cn4c3c2Oc2cc3ccccc3cc2-4)C1` (stereo not shown) [compound 248], the IC50 under setting [2] came to 1.75 µM.
As to `CN(C)CCCCNC(=O)c1cn2c3c(c(NCCCCN(C)C)ccc3c1=O)Oc1cc3ccccc3cc1-2` [compound 1544], under setting [1], the IC50 stood at 1.75 µM.
In the case of `CN1CCCC1CCNc1c(F)cc2c(=O)c(C(=O)NCCN3CCOCC3)cn3c2c1Oc1c-3ccc2ccccc12` (stereo not shown) [compound 134], the IC50 under setting [2] turned out to be 1.75 µM.
As for `CN1CCCC1CCNC(=O)c1cn2c3c(c(N4CCN(C(=O)OC(C)(C)C)CC4)c(F)cc3c1=O)Oc1cc(Cl)ccc1-2` (stereo not shown) [compound 1819], the IC50 under setting [1] came out at 10 µM.
With `Nc1c(F)c(NCCCN2CCOCC2)c2c3c1c(=O)c(C(=O)NCCCN1CCOCC1)cn3-c1cc3ccccc3cc1O2` [compound 218], the IC50 under setting [2] was 1.75 µM.
On the same count and under the same terms, for `CN1CCCC1CCNC(=O)c1cn2c3c(c(N4CC[C@@H](NC(=O)OC(C)(C)C)C4)c(F)cc3c1=O)Oc1c-2ccc2ccccc12` (stereo partly shown) [compound 132] the value was 1.75 µM.
The same measure, in the same setting: for `CN1CCN(CCCNc2c(F)cc3c(=O)c(C(=O)NCCCN4CCOCC4)cn4c3c2Oc2cc3c(cc2-4)oc2ccccc23)CC1` [compound 149] the value was 1.75 µM.
In the case of `Nc1ccc2[nH]c3cc4oc5c(N6CC[C@H](N)C6)c(F)cc6c(=O)c(C(=O)O)cn(c4cc3oc2c1)c56` [compound 11], the IC50 under setting [2] came to 1.75 µM.
Regarding `CC(C)(C)OC(=O)NC1CCN(C(=O)c2cn3c4c(c(NCCN5CCCC5)c(F)cc4c2=O)Oc2ccccc2-3)C1` (stereo not shown) [compound 1595], the IC50 under setting [1] is over 15 µM.
Consider `CN(C)CCCCNC(=O)c1cn2c3c(c(NCCN4CCCC4)c(F)cc3c1=O)Oc1c-2ccc2ccccc12` [compound 473], for which the IC50 under setting [2] was 0.62 µM.
On the same count and under the same terms, for `CC(=O)N[C@@H]1CCN(c2c(F)cc3c(=O)c(C(=O)NCCC4CCCN4C)cn4c3c2Oc2cc3c(cc2-4)oc2ccccc23)C1` (stereo partly shown) [compound 406] the value was 0.75 µM.
`CN1CCCC1CCNC(=O)c1cn2c3c(c(NCCCN4CCCC4=O)c(F)cc3c1=O)Oc1cc3ccccc3cc1-2` (stereo not shown) [compound 1660]: the IC50 under setting [1] stood at 1.8 µM.
With `O=C(NCCN1CCCC1)c1cn2c3c(c(SCCc4cnccn4)c(F)cc3c1=O)Oc1cc3ccccc3cc1-2` [compound 1767], the IC50 under setting [1] was determined as 3.2 µM.
On the same count and under the same terms, for `O=C(NCCN1CCCC1)c1cn2c3c(c(N4CCC(c5cnccn5)C4)c(F)cc3c1=O)Oc1cc3ccccc3cc1-2` (stereo not shown) [compound 1664] the value was 1.12 µM; for `CC(C)N1CCN(c2c(F)cc3c(=O)c(C(=O)NCCN4CCOCC4)cn4c3c2Oc2ccc(Cl)cc2-4)CC1` [compound 1804], over 15 µM.
In the case of `CN(C)CCCCNC(=O)c1cn2c3cc4c(=O)c5ccccc5c(=O)c4cc3oc3c(NCCC4CCCN4C)c(F)cc(c1=O)c32` (stereo not shown) [compound 347], under setting [2], the IC50 amounted to 0.9 µM.
Same read-out and setting: for `N=C(N)NCCCNC(=O)c1cn2c3c(c(NCCN4CCCC4)c(F)cc3c1=O)Oc1cc3ccccc3cc1-2` [compound 333] the value was 1 µM.
The same measure, in the same setting: for `CN1CCN(CCCNC(=O)c2cn3c4c(c(NCCN5CCCC5)c(F)cc4c2=O)Oc2c-3ccc3ccccc23)CC1` [compound 399] the value was 0.75 µM; for `CC(=O)N[C@@H]1CCN(c2c(F)cc3c(=O)c(C(=O)NCCCN4CCOCC4)cn4c3c2Oc2cc3c(cc2-4)oc2ccccc23)C1` [compound 178], 1.75 µM; for `O=C(O)c1cn2c3c(c(NCCCN4CCOCC4)c(F)cc3c1=O)Oc1cc3c(cc1-2)-c1ccccc1C3` [compound 6], 1.75 µM.
As for `CC(C)(C)OC(=O)NC1CCN(c2ccc3c(=O)c(C(=O)NCCCN4CCOCC4)cn4c3c2Oc2cc3ccccc3cc2-4)C1` (stereo not shown) [compound 1536], the IC50 under setting [1] is over 15 µM.
Regarding `CN1CCN(C(=O)c2cn3c4c(c(NCCN5CCCC5)c(F)cc4c2=O)Oc2ccccc2-3)CC1` [compound 1602], under setting [1], the IC50 was over 15 µM.
As for `CN1CCN(CCCNC(=O)c2cn3c4c(c(NCCCN5CCOCC5)c(F)c(N)c4c2=O)Oc2cc4ccccc4cc2-3)CC1` [compound 223], the IC50 under setting [2] is 1.75 µM.

The record behind these values is patent US7507727B2, “Substituted quinobenzoxazine analogs and methods of using thereof” (Cylene Pharmaceuticals, Inc., priority 2003, dated 2009).
